From ChEMBL document CHEMBL3352603, “Synthesis and preliminary investigations into novel 1,2,3-triazole-derived androgen receptor antagonists inspired by bicalutamide” (Bioorg Med Chem Lett, 2014)

Legend:
[1] = Growth inhibition of human PC3 cells; format: functional, cell-based; conditions: PC-3
[2] = test system: LNCaP; test: Growth inhibition of human LNCAP cells; format: functional, cell-based

## CC(O)(CS(=O)(=O)c1ccccc1)c1cn(-c2ccc([N+](=O)[O-])c(C(F)(F)F)c2)nn1 (racemic)
[1]
  IC50: 29 µM
[2]
  IC50: 34 µM

## CC(O)(CS(=O)(=O)c1ccc(F)cc1)c1cn(-c2ccc(C#N)c(C(F)(F)F)c2)nn1 (racemic)
[1]
  IC50: > 300 µM
[2]
  IC50: 45 µM

## CC(O)(CS(=O)(=O)c1ccccc1)c1cn(-c2ccc(C#N)c(C(F)(F)F)c2)nn1 (racemic)
[1]
  IC50: 114 µM
[2]
  IC50: 151 µM

## CC(O)(CS(=O)(=O)c1ccc(F)cc1)c1cn(-c2ccc(C(=O)O)cc2)nn1 (racemic)
[1]
  IC50: > 300 µM
[2]
  IC50: > 300 µM

## CC(O)(CS(=O)(=O)c1ccc(F)cc1)C(=O)Nc1ccc(C#N)c(C(F)(F)F)c1 (centres undefined) [BICALUTAMIDE]
[1]
  IC50: 58 µM
[2]
  IC50: 30 µM

## CCOC(=O)c1ccc(-n2cc(C(C)(O)CS(=O)(=O)c3ccc(F)cc3)nn2)cc1 (racemic)
[1]
  IC50: > 300 µM
[2]
  IC50: > 300 µM

## CC(O)(CS(=O)(=O)c1ccc(F)cc1)c1cn(-c2ccc([N+](=O)[O-])c(C(F)(F)F)c2)nn1 (racemic)
[1]
  IC50: > 300 µM
[2]
  IC50: 36 µM
